Laboratory results from ChEMBL document CHEMBL1201862, “PubChem BioAssay data set” (2004).
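Step 1: Grow cells in 96-well plates. Step 2: Expose to compound for 48 hours at 5 concentrations. Step 3: Interpolate endpoints linearly; if unreached, use highest concentration. At the GI50, growth is halved.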 Active and inactive are the calls of the source. Cut-off read from the data, not from the text of the source: active = GI50 up to about 1.1 µM and inactive = higher.

What was measured:
Assay in all cases: NCI tumour cell line growth inhibition, 48 h
DLD-1 = test system: DLD-1
DMS-273 = test system: DMS-273
LXFL 529 = test system: LXFL 529
SNB-78 = test system: SNB-78
BT-549 = test system: BT-549
MDA-MB-231 = test system: MDA-MB-231
NCI/ADR-RES = test system: NCI/ADR-RES
KM-20L2 = test system: KM-20L2

| SMILES | GI50 (DLD-1) | GI50 (DMS-273) | GI50 (LXFL 529) | GI50 (SNB-78) | GI50 (BT-549) | GI50 (MDA-MB-231) | GI50 (NCI/ADR-RES) | GI50 (KM-20L2) |
| --- | --- | --- | --- | --- | --- | --- | --- | --- |
| N#Cc1ccccc1C(Cl)(Cl)c1cnccn1 | 47.3 µM (inactive) | 37.2 µM (inactive) | 75.9 µM (inactive) | 46.3 µM (inactive) |  |  |  |  |
| O=C(NS(=O)(=O)OCC(Cl)(Cl)Cl)SCCC(F)(F)C(F)(F)C(F)(F)C(F)(F)C(F)(F)C(F)(F)F |  |  |  |  | 49 µM (inactive) | 25.4 µM (inactive) | 20.2 µM (inactive) |  |
| CC1CCC(=O)C(C(O)CC2CC(=O)N(c3ccccc3)C(=O)C2)C1 (stereo not given) | > 100 µM (inactive) | > 100 µM (inactive) | > 100 µM (inactive) | > 100 µM (inactive) |  |  |  | > 100 µM (inactive) |
| COc1ccc(NC2Oc3cc4c(cc3C(c3cc(OC)c(O)c(OC)c3)C2C)OCO4)cc1 (stereo not given) |  |  |  |  | 10.4 µM (inactive) | 2.65 µM (inactive) | 5.66 µM (inactive) |  |
| CC/C=C/C[C@H](O[Si](C)(C)C(C)(C)C)[C@H]1C[C@H]2O[C@H]([C@@H](O)C#C[Si](C)(C)C)C[C@H]2O1 |  |  |  |  | 19.2 µM (inactive) | 14.9 µM (inactive) | 13.3 µM (inactive) |  |
| COc1cc(C=O)cc(/C=N/c2ccc(S(N)(=O)=O)cc2)c1O |  |  |  |  | 6.73 µM (inactive) | 20.4 µM (inactive) | 10.5 µM (inactive) |  |
| CC(=O)OC(C)C(=O)C1c2cccc(O)c2C(=O)c2c(O)cc(C)cc21 (stereo not given) | 1.75 µM (inactive) | 0.634 µM (active) |  | 0.753 µM (active) |  |  |  | 1.37 µM (inactive) |
| C[C@]12CC[C@H](OC(=O)Cc3ccc(N(CCCl)CCCl)cc3)CC1=CC[C@@H]1[C@@H]2CC[C@]2(C)C(=O)CC[C@@H]12 |  |  |  |  | > 100 µM (inactive) | > 100 µM (inactive) | > 100 µM (inactive) |  |
| Cc1cc(N(CCC#N)CCC#N)ccc1/N=N/c1cc(Cl)ccc1Cl | 10.6 µM (inactive) | 14.4 µM (inactive) | 1.7 µM (inactive) | 6.22 µM (inactive) |  |  |  |  |
| C[C@]12CCC(=O)C=C1CC[C@@H]1C2CC[C@]2(C)NC(=O)C(C#N)CC12 (stereo not given in full) | > 100 µM (inactive) | > 100 µM (inactive) | > 100 µM (inactive) | > 100 µM (inactive) |  |  |  | 53.6 µM (inactive) |
| COc1ccc2nc3c(C(=O)NCCN(C)C)cccc3cc2c1 | 2.16 µM (inactive) | 1.28 µM (inactive) |  | 3.76 µM (inactive) |  |  | 1.41 µM (inactive) | 0.562 µM (active) |
| CCCNC(=O)C(C)C1CCC2(C)C=CC(=O)C(C)=C2C1O (stereo not given) | > 100 µM (inactive) | > 100 µM (inactive) |  |  |  |  | > 100 µM (inactive) | > 100 µM (inactive) |
| CSc1nc2c(c(=O)n1C)N=C(c1ccc(Cl)cc1)CC(c1ccccc1)N2 (stereo not given) |  |  |  |  | 24.9 µM (inactive) | 11.9 µM (inactive) | 17.4 µM (inactive) |  |
| Cc1nc2ccccc2cc1C[N+]12CN3CN(CN(C3)C1)C2 |  |  |  |  | 19.3 µM (inactive) | 16.4 µM (inactive) | 22.4 µM (inactive) |  |
| C=C(C)COc1ccc2c(c1)CCC1C2CCC2(C)C(=O)/C(=N/O)CC12 (stereo not given) |  |  |  |  | 6.41 µM (inactive) | 1.66 µM (inactive) | 4.27 µM (inactive) |  |
| CCCc1[nH]c2ccccc2c1-c1c(CCC)[nH]c2ccccc12 |  |  |  |  | 13.9 µM (inactive) | 15.3 µM (inactive) | 10.1 µM (inactive) |  |
| [N-]=[N+]=CC(=O)CCC(NC(=O)C(CCC(=O)C=[N+]=[N-])NC(=O)CCC(N)C(=O)O)C(=O)O (stereo not given) | > 100 µM (inactive) | > 100 µM (inactive) |  | > 100 µM (inactive) |  |  | > 100 µM (inactive) | > 100 µM (inactive) |
| CC1NC(=O)C2=C1C(N)=NC(=O)C2 (stereo not given) | > 100 µM (inactive) | > 100 µM (inactive) | > 100 µM (inactive) | > 100 µM (inactive) |  |  |  | > 100 µM (inactive) |
| COc1ccc2cc(CN3CCC(C4CCN(Cc5ccc6cc(OC)ccc6c5)CC4)CC3)ccc2c1 |  |  |  |  | > 10 µM (inactive) | 2.52 µM (inactive) | 6.82 µM (inactive) |  |
| C=C(Cl)C(Br)(CCl)CCC(Br)C(C)(C)Cl (stereo not given) |  |  |  |  | 2.52 µM (inactive) | 1.64 µM (inactive) | 3.17 µM (inactive) |  |
| O=C1NC(=O)C(CC2CCCCCCCCCCC2=O)C(=O)N1 (stereo not given) |  |  |  |  | > 100 µM (inactive) | > 100 µM (inactive) | > 100 µM (inactive) |  |
| C[C@H]1COC(c2ccccn2)=N1 | > 100 µM (inactive) | > 100 µM (inactive) |  | > 100 µM (inactive) |  |  | > 100 µM (inactive) | > 100 µM (inactive) |
| COc1ccc(/C=c2/s/c(=C(\C#N)c3nc4ccccc4[nH]3)n(-c3ccccc3)c2=O)cc1 | > 100 µM (inactive) | 36.8 µM (inactive) | 2.32 µM (inactive) |  | 21 µM (inactive) | 18.7 µM (inactive) | 5.06 µM (inactive) | > 100 µM (inactive) |
| Oc1ccc(-c2nc3ccc4ccccc4c3c3c2CCCC3)c(O)c1 |  |  |  |  | 32.7 µM (inactive) | 12.9 µM (inactive) | > 100 µM (inactive) |  |
| CCn1c(SCC(=O)N/N=C/c2ccccc2)nc2ccccc2c1=O |  |  |  |  | 17.3 µM (inactive) | 14.3 µM (inactive) | 4.05 µM (inactive) |  |
